Experimental findings from patent publication US12280212B2, “Method and apparatus for simultaneously administering oxygen, and metered dose inhaler medication by inhalation” (priority 2019, dated 2025) are described below.

This data set in a line: MDI inserted through a port into an oxygen mask without extender tube at 2-15 L/min oxygen flow, measured blood levels. Type of data set: in vivo, patient. The following applies: 2-15 L/min oxygen flow (wash-out). From the text: The relatively high flow oxygen jet disperses the drug aerosol initially expressed into the mask from the MDI that was inserted into the mask, and as a result, much of the drug is dispersed around the interior of the mask and is washed out of the mask and back out through the MDI housing to ambient by the flow of oxygen, rather than being inhaled by the patient.
In this invention, an extender tube 300 (FIG. 12) is provided that can be inserted into or over the mouthpiece section 230 of an MDI body (FIGS. 8A, 8B, and 9). […] This use of the tube to channel the inhalable medication from an MDI to the mouth of the patient addresses the problem noted above that simply inserting an MDI mouthpiece into a mask with a flow of oxygen causes “wash-out” of the drug, i.e., the drug aerosol or particles (i.e., the discharge from an MDI) are dispersed within the mask and out to ambient, and as a result measured drug levels inhaled by the patient are very low. In the instant invention, measured drug levels of the MDI drug in the lung are high.

The structures appear in SMILES notation.

As for `CC(C)(C)NCC(O)c1ccc(O)c(CO)c1` (stereo not shown) [albuterol HFA, albuterol], the “measured blood levels of the albuterol drug” value is reported as “negligible”.
